Values of other authors, collected in patent publication US12296046B2, “Micro-emulsion containing creatine fatty-ester, method for preparing said micro-emulsion and uses thereof” (COMMISSARIAT À L'ÉNERGIE ATOMIQUE ET AUX ÉNERGIES …, priority 2018, dated 2025).

Tested on: CrT−/y mice
Conditions: 30 mg/kg, intracerebroventricular administration

CCCCCCCCCCCCOC(=O)CN(C)C(=N)N [DCE, dodecyl creatine ester]
performance in the object recognition task: significantly improves the performance
